Source: ChEMBL document CHEMBL1127755, “Comparative molecular field analysis using GRID force-field and GOLPE variable selection methods in a study of inhibitors of glycogen phosphorylase b” (J Med Chem, 1994)

biological target: Glycogen phosphorylase, muscle form (Oryctolagus cuniculus) (UniProt P00489); test: Tested for inhibition constant against glycogen phosphorylase b; set-up: scale not given here
Sequence (P00489 whole entry, looked up): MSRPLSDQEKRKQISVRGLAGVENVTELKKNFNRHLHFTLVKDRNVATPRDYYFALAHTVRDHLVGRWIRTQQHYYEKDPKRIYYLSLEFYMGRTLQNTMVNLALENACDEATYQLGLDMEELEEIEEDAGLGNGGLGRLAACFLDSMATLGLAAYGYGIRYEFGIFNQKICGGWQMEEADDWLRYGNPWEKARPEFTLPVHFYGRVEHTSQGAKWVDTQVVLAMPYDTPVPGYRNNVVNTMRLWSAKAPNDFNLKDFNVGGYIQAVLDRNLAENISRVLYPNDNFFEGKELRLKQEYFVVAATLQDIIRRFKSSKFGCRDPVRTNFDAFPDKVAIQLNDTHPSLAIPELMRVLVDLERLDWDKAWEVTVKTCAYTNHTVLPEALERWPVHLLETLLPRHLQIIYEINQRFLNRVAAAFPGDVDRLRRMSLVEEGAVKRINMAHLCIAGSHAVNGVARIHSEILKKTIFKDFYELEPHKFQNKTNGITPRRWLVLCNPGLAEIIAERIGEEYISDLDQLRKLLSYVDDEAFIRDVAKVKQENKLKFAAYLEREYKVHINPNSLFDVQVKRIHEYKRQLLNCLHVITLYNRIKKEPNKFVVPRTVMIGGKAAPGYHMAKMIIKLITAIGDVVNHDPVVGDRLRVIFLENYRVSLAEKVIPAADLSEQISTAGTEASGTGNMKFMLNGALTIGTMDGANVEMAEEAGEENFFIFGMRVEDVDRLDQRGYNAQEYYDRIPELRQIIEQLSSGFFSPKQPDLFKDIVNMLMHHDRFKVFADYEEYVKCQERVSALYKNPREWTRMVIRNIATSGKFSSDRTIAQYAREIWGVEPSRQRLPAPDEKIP

Structure (SMILES)	Exp Inhib Constant
NC(=O)[C@@H]1O[C@H](CO)[C@@H](O)[C@H](O)[C@H]1O	-1.61
NC(=O)[C@H]1O[C@H](CO)[C@@H](O)[C@H](O)[C@H]1O	3.6
O=C(Nc1ccc(O)cc1)C1OC(CO)C(O)C(O)C1O (stereo not given)	1.72
NNC(=O)[C@@H]1O[C@H](CO)[C@@H](O)[C@H](O)[C@H]1O (stereo in doubt; 25)	1.1
OC[C@H]1O[C@H](OCC2O[C@@H](O)[C@H](O)[C@@H](O)[C@@H]2O)[C@H](O)[C@@H](O)[C@H]1O (stereo not given in full)	2.79
NCC1OC(CO)C(O)C(O)C1O (stereo in doubt; 14)	3.54
CO[C@H]1O[C@H](CO)[C@H](O)[C@H](O)[C@H]1O	2.49
COC(=O)C1OC(CO)C(O)C(O)C1O (stereo in doubt; 31)	3.19
NC(=O)C1OC(CO)C(O)C(O)C1O (stereo in doubt; 20)	-0.99
OCC1OC(S)C(O)C(O)C1O (stereo not given)	0
CO[C@@H]1O[C@H](CO)[C@H](O)[C@H](O)[C@H]1O	3.21
O=C(Nc1ccccc1)C1OC(CO)C(O)C(O)C1O (stereo not given)	2.53
[N-]=[N+]=NC[C@@]1(O)O[C@@H](CO)[C@@H](O)[C@H](O)[C@@H]1O	2
NNC(=O)[C@@H]1O[C@H](CO)[C@@H](O)[C@H](O)[C@H]1O (stereo in doubt; 35)	-0.92
OCCO[C@@H]1O[C@H](CO)[C@@H](O)[C@H](O)[C@H]1O	3.23
NCC1OC(CO)C(O)C(O)C1O (stereo in doubt; 15)	2.82
[N-]=[N+]=NC[C@@H]1O[C@H](CO)[C@@H](O)[C@H](O)[C@H]1O	2.72
NCCC1OC(CO)C(O)C(O)C1O (stereo not given)	1.5

Structure (SMILES)	Exp Inhib Constant
OCC1OC(CO)C(O)C(O)C1O (stereo in doubt; 10)	3.09
OC[C@@H]1O[C@@](O)(CO)[C@@H](O)[C@@H](O)[C@@H]1O	2.76
NC(=O)C1OC(CO)C(O)C(O)C1O (stereo in doubt; 27)	-0.82
N#CC[C@@H]1O[C@H](CO)[C@@H](O)[C@H](O)[C@H]1O	2.2
OCc1ccccc1O[C@H]1O[C@H](CO)[C@@H](O)[C@H](O)[C@H]1O	2.15
O=C(CCl)N[C@H]1O[C@H](CO)[C@@H](O)[C@H](O)[C@H]1O	-3.22
COC(=O)C1OC(CO)C(O)C(O)C1O (stereo in doubt; 33)	0.92
OCC1OC(F)C(F)C(O)C1O (stereo not given)	-1.61
OCC1OC(CO)C(O)C(O)C1O (stereo in doubt; 9)	0.41
OC[C@H]1O[C@@H](Oc2cc3ccccc3[nH]2)[C@H](O)[C@@H](O)[C@@H]1O	0.96
CC1OC(CO)C(O)C(O)C1O (stereo not given)	3.97
NC(=O)CS[C@H]1O[C@H](CO)[C@@H](O)[C@H](O)[C@H]1O	3.05
[N-]=[N+]=NC[C@H]1O[C@H](CO)[C@@H](O)[C@H](O)[C@H]1O	3.11
N#CC[C@]1(O)O[C@H](CO)[C@@H](O)[C@H](O)[C@H]1O	2.03
CS(=O)(=O)OCC1OC(CO)C(O)C(O)C1O (stereo not given)	1.57
CS(=O)(=O)OC[C@]1(O)O[C@@H](CO)[C@@H](O)[C@H](O)[C@@H]1O	1.31
O[C@@H]1[C@@H](O)[C@@H](O)O[C@H](CS)[C@H]1O	0.69
